{"source": "patent US20260103461A1", "about": "“ESTROGEN RECEPTOR MODULATORS AND USES THEREOF” (Olema Pharmaceuticals, Inc., priority 2022, published 2026)", "data": [{"molecular_target": "T1, estrogen receptor (Homo sapiens, UniProt P03372)", "T1 construct": "endogenous in cells; host or cells: ECC-1 cells", "T1 sequence (P03372 1-595)": "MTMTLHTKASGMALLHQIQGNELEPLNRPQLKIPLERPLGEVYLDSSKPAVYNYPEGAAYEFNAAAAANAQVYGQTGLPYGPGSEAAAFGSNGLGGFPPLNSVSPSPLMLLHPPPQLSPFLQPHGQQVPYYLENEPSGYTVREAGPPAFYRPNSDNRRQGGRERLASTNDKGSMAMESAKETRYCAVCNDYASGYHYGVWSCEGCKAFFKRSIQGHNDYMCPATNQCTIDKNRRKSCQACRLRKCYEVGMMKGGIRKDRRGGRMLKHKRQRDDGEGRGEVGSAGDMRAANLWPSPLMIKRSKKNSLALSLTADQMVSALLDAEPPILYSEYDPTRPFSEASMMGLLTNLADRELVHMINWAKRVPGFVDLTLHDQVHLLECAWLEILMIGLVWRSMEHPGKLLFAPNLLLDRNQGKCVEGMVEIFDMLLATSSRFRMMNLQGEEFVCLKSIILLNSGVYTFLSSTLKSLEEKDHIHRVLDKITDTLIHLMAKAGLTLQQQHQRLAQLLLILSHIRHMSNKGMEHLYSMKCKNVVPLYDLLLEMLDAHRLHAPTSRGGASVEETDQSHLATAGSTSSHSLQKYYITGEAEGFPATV", "assay": "AP (alkaline phosphatase) assay in ECC-1 cells, agonist mode and antagonist mode", "assay_type": "cell-based", "conditions": "3 days, absence of E2 (agonist mode) or 500 pM E2 (antagonist mode), AP activity normalized to 500 pM E2 alone", "method": "ECC-1 cells were trypsinized and resuspended in hormone-depleted media and plated at a density of 15 k cells per well into a 96-well plate for at least 4 hours. Cells were treated with test compounds in the absence of E2 (for agonist mode) or in the presence of 500 pM E2 (for antagonist mode) for 3 days and plates were subsequently frozen at −80° C. Thawed plates were incubated with a chromogenic substrate of AP, p-nitrophenyl phosphate (Thermo Fisher Scientific), for 40 minutes at 42° C., and absorbances were read at 405 nm. AP activity was normalized to the activity of 500 pM E2 alone.\nThe compound numbers correspond to the compound numbers of Table 1 and 2. Compounds having an activity designated as “+” provided estrogen receptor agonism having (i) at least 80% increase in the E2-normalized signal in the AP assay (agonist mode) and (ii) no more than 80% reduction in the E2-normalized signal in the AP assay (antagonist mode). Compounds having an activity designated as “++” provided estrogen receptor antagonism having (i) between 10% and 80% increase in the E2-normalized signal in the AP assay (agonist mode) and (ii) between 10% and 80% reduction in the E2-normalized signal in the AP assay (antagonist mode).", "values": [{"smiles": "C[C@@H]1Cc2c([nH]c3ccccc23)[C@@H](c2ccc(O[C@H]3CCN(CCCF)C3)s2)N1CC(C)(C)F", "note": "[Example I-4, (3S)-3-({5-[(1S,3R)-2-(2-fluoro-2-methylpropyl)-3-methyl-1H,2H,3H,4H,9H-pyrido[3,4-b]indol-1-yl]thiophen-2-yl}oxy)-1-(3-fluoropropyl)pyrrolidine]", "Activity (estrogen receptor modulation, agonism and antagonism)": "+++ (estrogen receptor antagonism (i) with pIC50 greater than 7.5 and at least a 10% reduction in the E2-normalized signal in the AP assay (antagonist mode); and no more than 10% increase in E2-normalized signal in the AP assay (agonist mode))"}, {"smiles": "C[C@@H]1Cc2c([nH]c3ccccc23)[C@@H](c2ncc(OC3CN(CCCF)C3)s2)N1CC(F)F", "note": "[Example I-18, 2-[(1S,3R)-2-(2,2-difluoroethyl)-3-methyl-1,3,4,9-tetrahydropyrido[3,4-b]indol-1-yl]-5-[1-(3-fluoropropyl)azetidin-3-yl]oxy-thiazole]", "Activity (estrogen receptor modulation, agonism and antagonism)": "++ (estrogen receptor antagonism having (i) between 10% and 80% increase in the E2-normalized signal in the AP assay (agonist mode) and (ii) between 10% and 80% reduction in the E2-normalized signal in the AP assay (antagonist mode))"}, {"smiles": "C[C@@H]1Cc2c([nH]c3ccccc23)[C@@H](c2ccc(OC3CN(CCCF)C3)s2)N1CC(F)(F)CO", "note": "[Example I-12, 2,2-difluoro-3-[(1S,3R)-1-[5-[1-(3-fluoropropyl)azetidin-3-yl]oxy-2-thienyl]-3-methyl-1,3,4,9-tetrahydropyrido[3,4-b]indol-2-yl]propan-1-ol]", "Activity (estrogen receptor modulation, agonism and antagonism)": "+++ (estrogen receptor antagonism (i) with pIC50 greater than 7.5 and at least a 10% reduction in the E2-normalized signal in the AP assay (antagonist mode); and no more than 10% increase in E2-normalized signal in the AP assay (agonist mode))"}, {"smiles": "C[C@@H]1Cc2c([nH]c3ccccc23)[C@@H](c2cnc(O[C@@H]3CON(CCCF)C3)s2)N1CC(F)(F)CO", "note": "[Example I-36, 2,2-difluoro-3-[(1S,3R)-1-[2-[(4S)-2-(3-fluoropropyl)isoxazolidin-4-yl]oxythiazol-5-yl]-3-methyl-1,3,4,9-tetrahydropyrido[3,4-b]indol-2-yl]propan-1-ol]", "Activity (estrogen receptor modulation, agonism and antagonism)": "+ (estrogen receptor agonism having (i) at least 80% increase in the E2-normalized signal in the AP assay (agonist mode) and (ii) no more than 80% reduction in the E2-normalized signal in the AP assay (antagonist mode))"}, {"smiles": "C[C@@H]1Cc2c([nH]c3ccccc23)[C@@H](c2ccc(OC3CN(CCCF)C3)s2)N1CC(C)(C)F", "note": "[Example I-2, 3-({5-[(1S,3R)-2-(2-fluoro-2-methylpropyl)-3-methyl-1H,2H,3H,4H,9H-pyrido[3,4-b]indol-1-yl]thiophen-2-yl}oxy)-1-(3-fluoropropyl)azetidine]", "Activity (estrogen receptor modulation, agonism and antagonism)": "++ (estrogen receptor antagonism having (i) between 10% and 80% increase in the E2-normalized signal in the AP assay (agonist mode) and (ii) between 10% and 80% reduction in the E2-normalized signal in the AP assay (antagonist mode))"}, {"smiles": "C[C@@H]1Cc2c([nH]c3ccccc23)[C@@H](c2ccc(O[C@@H]3CCN(CCF)C3)s2)N1CC(C)(C)F", "note": "[Example I-17, (1S,3R)-1-[5-[(3R)-1-(2-fluoroethyl)pyrrolidin-3-yl]oxy-2-thienyl]-2-(2-fluoro-2-methyl-propyl)-3-methyl-1,3,4,9-tetrahydropyrido[3,4-b]indole]", "Activity (estrogen receptor modulation, agonism and antagonism)": "+ (estrogen receptor agonism having (i) at least 80% increase in the E2-normalized signal in the AP assay (agonist mode) and (ii) no more than 80% reduction in the E2-normalized signal in the AP assay (antagonist mode))"}, {"smiles": "CCN1CC[C@@H](Oc2ccc([C@@H]3c4[nH]c5ccccc5c4C[C@@H](C)N3CC(C)(C)F)s2)C1", "note": "[Example I-14, (1S,3R)-1-[5-[(3R)-1-ethylpyrrolidin-3-yl]oxy-2-thienyl]-2-(2-fluoro-2-methyl-propyl)-3-methyl-1,3,4,9-tetrahydropyrido[3,4-b]indole]", "Activity (estrogen receptor modulation, agonism and antagonism)": "+ (estrogen receptor agonism having (i) at least 80% increase in the E2-normalized signal in the AP assay (agonist mode) and (ii) no more than 80% reduction in the E2-normalized signal in the AP assay (antagonist mode))"}]}]}
